Reference: US10376476B2, “Panicein compounds, compositions and uses thereof” (CENTRE NATIONAL DE LA RECHERCHE SCIENTIFIQUE, priority 2014, dated 2019)

Experiments:
A375 cells = test: Doxorubicin efflux from melanoma cells (intracellular dxr fluorescence); format: cell-based, human; conditions: A375, loaded with 10 μM dxr, 10 μM compound, 30 min efflux
Description: (§1) A. Compound P5 inhibits doxorubicin efflux from melanoma cells MeWo and A375. Cells were grown on cover-slips, incubated for 2 hour at 37° C. with 10 μM doxorubicin and quickly rinsed with phosphate buffer (pH 7.4). One cover-slip of each cell line was immediately fixed for doxorubicin charge control. The other cover-slips were incubated with buffer supplemented with DMSO or 10 μM of compound P5 30 min under gentle shaking and immediately fixed. Dxr intracellular fluorescence was visualized by epifluorescence and analyzed using Image J software on more than 30 cells of 3 different fields for each condition. The results were analyzed using the Student t test in which significance is attained at P<0.05 (**: P<0.005, ***: P<0.0005). […] Dxr intracellular fluorescence quantification was carried out using Image J software on more than 30 yeasts on 3 different fields for each condition. The results were analyzed using the Student t test in which significance is attained at P<0.05 (*).
(§2) On melanoma cells: For doxorubicin incorporation in melanoma cells, the protocol was adapted from Bidet et al. (2012). […] Quantification of doxorubicin intracellular fluorescence was carried out using Image J software on more than 30 cells of 3 different fields for each condition. The results were analyzed using the Student t test in which significance is attained at P<0.05.

MeWo cells = test: as above; format: cell-based, human; conditions: loaded with 10 μM dxr, 10 μM compound, 30 min efflux
Description: as §1, §2

keratinocytes HaCaT = test: Doxorubicin efflux from cells (intracellular dxr fluorescence); format: cell-based
A375 melanoma cells = test: Vemurafenib cytotoxicity, viability test using neutral red; format: cell-based, human; conditions: A375, 10 μM panicein A hydroquinone

`COc1cc(C)c(CC/C(C)=C/Cc2cc(O)ccc2O)c(C)c1C` [P5, Panicein A hydroquinone] was tested, and the “increase of dxr in cells (dxr fluorescence intensity) after efflux” value (shortened to “increase of dxr in cells”) (A375 cells) was “about 25%”, the “increase of dxr in cells” value (MeWo cells) was “about 25%” and the “increase of dxr in cells” value (keratinocytes HaCaT) was “contrary to “healthy” keratinocytes HaCaT”. For the same compound, the “increase of vemurafenib cytotoxicity” value (A375 melanoma cells) was “strongly increases”.
